Tests used:
[1] = test system: ¹⁴C-Cholesterol Absorption; assay: In vivo 14C-cholesterol absorption in normal rats; conditions: oral gavage, blood samples six hours later
Procedure: Representative compounds were further tested in vivo to establish the percent inhibition of cholesterol absorption. In this study, normal rats were dosed (oral gavage) with ¹⁴C-cholesterol plus the test compound. Blood samples taken exactly six hours later were analyzed and the percent inhibition of cholesterol absorption was calculated as shown in: Table II

[2] = test system: acyl-coenzyme A: cholesterol acyltransferase; assay: Inhibition of intracellular cholesterol esterification (ACAT), test procedure of Ross et al.; assay type: cell-based; conditions: for % Inhib, (Concentration - µM): 25 µM; for IC50: read-out: IC₅₀
Source text: The ability of the compounds of this invention to inhibit acyl-coenzyme A: cholesterol acyltransferase was established by initially showing that they inhibited intracellular cholesterol esterification by subjecting them to the standard experimental test procedure of Ross et al., J. Biol. Chem. 259 815 (1984). The results of these studies are presented in: Table I

| SMILES | % Inhibition of Absorption ([1]; dose 3 mg/kg) [%] | % Inhib, (Concentration - µM) [2] | IC50 [2] [nM] | % Inhibition of Absorption ([1]; dose 10 mg/kg) [%] |
| --- | --- | --- | --- | --- |
| CCCCCCN(Cc1ccnc2ccccc12)C(Nc1ccc(OC)cc1OC)=C1C(=O)OC(C)(C)OC1=O [Example 2, 5-[[(2,4-Dimethoxyphenyl)amino][hexyl(4-quinolinylmethyl)amino]methylene]-2,2-dimethyl-1,3-dioxane-4,6-dione] | 2 |  |  |  |
| CCCCCCN(Cc1ccc2ccccc2n1)C(Nc1cc(C(C)(C)C)c(O)c(C(C)(C)C)c1)=C1C(=O)OC(C)(C)OC1=O [Example 3, 5-[[[3,5-Bis(1,1-dimethylethyl)-4-hydroxyphenyl]amino][hexyl(2-quinolinylmethyl)amino]methylene]-2,2-dimethyl-1,3-dioxane-4,6-dione] | 11 | 55 (25) % | 2330 |  |
| CCCCCCN(Cc1ccc2ccccc2n1)C(Nc1ccc(OC)cc1OC)=C1C(=O)OC(C)(C)OC1=O [Example 4, 5-[[(2,4-Dimethoxyphenyl)amino][hexyl(2-quinolinylmethyl)amino]methylene]-2,2-dimethyl-1,3-dioxane-4,6-dione] |  | 72 (25) % | 5160 |  |
| CCCCCC(C)N(Cc1ccc2ccccc2n1)C(Nc1ccc(OC)cc1OC)=C1C(=O)OC(C)(C)OC1=O (centres unmarked) [Example 5] |  | 90 (25) % | 2420 |  |
| CCCCCC(C)N(Cc1ccc2ccccc2n1)C(Nc1cc(C(C)(C)C)c(O)c(C(C)(C)C)c1)=C1C(=O)OC(C)(C)OC1=O (centres unmarked) [Example 6] |  | 95 (25) % | 1550 |  |
| CCCCCC(C)N(Cc1ccnc2ccccc12)C(Nc1ccc(OC)cc1OC)=C1C(=O)OC(C)(C)OC1=O (centres unmarked) [Example 7, 5-[[(2,4-Dimethoxyphenyl)amino][(1-methylhexyl)(4-quinolinylmethyl)amino]methylene]-2,2-dimethyl-1,3-dioxane-4,6-dione] |  | 51 (25) % | 9410 |  |
| CCCCCC(C)N(Cc1ccnc2ccccc12)C(Nc1cc(C(C)(C)C)c(O)c(C(C)(C)C)c1)=C1C(=O)OC(C)(C)OC1=O (centres unmarked) [Example 8, 5-[[[3,5-Bis(1,1-dimethylethyl)-4-hydroxyphenyl]amino][(1-methylhexyl)(4-quinolinylmethyl)amino]methylene]-2,2-dimethyl-1,3-dioxane-4,6-dione] |  | 97 (25) % | 1650 |  |
| CCCCCCN(Cc1cnc2ccccc2c1)C(Nc1cc(C(C)(C)C)c(O)c(C(C)(C)C)c1)=C1C(=O)OC(C)(C)OC1=O [Example 9, 5-[[[3,5-Bis(1,1-dimethylethyl)-4-hydroxyphenyl]amino][hexyl(3-quinolinylmethyl)amino]methylene]-2,2-dimethyl-1,3-dioxane-4,6-dione] |  | 98 (25) % | 1350 |  |
| CCCCCCN(Cc1ccncc1)C(Nc1cc(C(C)(C)C)c(O)c(C(C)(C)C)c1)=C1C(=O)OC(C)(C)OC1=O [Example 10, 5-[(3,5-Di-tert-butyl-4-hydroxy-phenylamino)-(hexyl-(pyridin-4-ylmethyl)-amino)-methylene]-2,2-dimethyl-1,3-dioxane-4,6-dione] |  | 94 (25) % | 5820 |  |
| CCCCCCN(Cc1ccncc1)C(Nc1ccc(OC)cc1OC)=C1C(=O)OC(C)(C)OC1=O [Example 11] |  | 24 (25) % |  |  |
| CCCCCCN(Cc1ccccn1)C(Nc1cc(C(C)(C)C)c(O)c(C(C)(C)C)c1)=C1C(=O)OC(C)(C)OC1=O [Example 12, 5-[(3,5-Di-tert-butyl-4-hydroxy-phenylamino)-(hexyl-(pyridin-2-ylmethyl)-amino]-methylene]-2,2-dimethyl-[1,3]-dioxane-4,6-dione] |  | 92 (25) % | 4110 | 65 |
| CCCCCCN(Cc1ccccn1)C(Nc1ccc(OC)cc1OC)=C1C(=O)OC(C)(C)OC1=O [Example 13, 5-[(2,4-Dimethoxyphenylamino)-[hexyl-(pyridin-2-ylmethyl)-amino]-methylene]-2,2-dimethyl-[1,3]-dioxane-4,6-dione] |  | 26 (25) % |  |  |
| CCCCCCN(Cc1cccnc1)C(Nc1ccc(OC)cc1OC)=C1C(=O)OC(C)(C)OC1=O [Example 14, 5-[(2,4-Dimethoxy-phenylamino)-[hexyl-(pyridin-3-ylmethyl)-amino]-methylene]-2,2-dimethyl-[1,3]-dioxane-4,6-dione] |  | 18 (25) % |  |  |
| CCCCCCN(Cc1cccnc1)C(Nc1cc(C(C)(C)C)c(O)c(C(C)(C)C)c1)=C1C(=O)OC(C)(C)OC1=O [Example 15, 5-[(3,5-Di-tert-butyl-4-hydroxy-phenylamino)-[hexyl-(pyridin-3-ylmethyl)-amino]-methylene]-2,2-dimethyl-1,3-dioxane-4,6-dione] | 48 | 97 (25) % | 3900 |  |
| CCCCCCCN(Cc1ccc(CC(C)(C)C)s1)C(Nc1ccc(OC)cc1OC)=C1C(=O)OC(C)(C)OC1=O [Example 16, 5-[[(2,4-Dimethoxyphenyl)amino][[[5-(2,2-dimethylpropyl)-2-thienyl]methyl]heptylamino]-methylene]-2,2-dimethyl-1,3-dioxane-4,6-] |  | 94 (25) % | 2960 |  |
| CCCCCCCN(Cc1ccc(CC(C)(C)C)s1)C(Nc1cc(C(C)(C)C)c(O)c(C(C)(C)C)c1)=C1C(=O)OC(C)(C)OC1=O [Example 17, 5-[[[3,5-Bis(1,1-dimethylethyl)-4-hydroxyphenyl]amino][[[5-(2,2-dimethylpropyl)-2-thienyl]methyl]heptylamino]methylene]-2,2-dimethyl-1,3-dioxane-4,6-dione] |  |  | 700 |  |
| CCCCCC(C)N(Cc1ccc(CC(C)(C)C)s1)C(Nc1ccc(OC)cc1OC)=C1C(=O)OC(C)(C)OC1=O (centres unmarked) [Example 18, 5-[[(2,4-Dimethoxyphenyl)amino][[[5-(2,2-dimethylpropyl)-2-thienyl]methyl](1-methylhexyl)-amino]methylene]-2,2-dimethyl-1,3-dioxane-4,6-dione] |  | 97 (25) % |  |  |
| CCCCCCC(C)N(Cc1ccc(CC(C)(C)C)s1)C(Nc1cc(C(C)(C)C)c(O)c(C(C)(C)C)c1)=C1C(=O)OC(C)(C)OC1=O (centres unmarked) [Example 19, 5-[[[3,5-Bis(1,1-dimethylethyl)-4-hydroxyphenyl]amino][[[5-(2,2-dimethylpropyl)-2-thienyl]methyl](1-methylheptyl)amino]methylene]-2,2-dimethyl-1,3-dioxane-4,6-dione] |  |  | 640 |  |
| COc1ccc(NC(NC(c2ccc(CC(C)(C)C)s2)C2CCCCC2)=C2C(=O)OC(C)(C)OC2=O)c(OC)c1 (centres unmarked) [Example 20, 5-[[[Cyclohexyl-[5-(2,2-dimethylpropyl)-2-thienyl]methyl]amino]-[(2,4-dimethoxyphenyl)amino]-methylene]-2,2-dimethyl-1,3-dioxane-4,6-dione] |  | 95 (25) % |  |  |
| CCCCCCN(Cc1csc2ccccc12)C(Nc1cc(C(C)(C)C)c(O)c(C(C)(C)C)c1)=C1C(=O)OC(C)(C)OC1=O [Example 21, 5-[(Benzo[b]thiophen-3-ylmethyl-hexyl-amino)-(3,5-di-tert-butyl-4-hydroxy-phenylamino)-methylene]-2,2-dimethyl-[1,3]dioxane-4,6-dione] |  | 98 (25) % | 380 |  |
| CCCCCCN(Cc1cc2ccccc2s1)C(Nc1ccc(OC)cc1OC)=C1C(=O)OC(C)(C)OC1=O [Example 22, 5-[[(Benzo[b]thiophen-2-ylmethyl)-hexyl-amino]-(2,4-dimethoxyphenylamino)-methylene]-2,2-dimethyl-[1,3]dioxane-4,6-] |  | 94 (25) % | 620 |  |
| CCCCCC(C)N(Cc1cc2ccccc2s1)C(Nc1ccc(OC)cc1OC)=C1C(=O)OC(C)(C)OC1=O (centres unmarked) [Example 23, 5-[[Benzo[b]thiophen-2-ylmethyl-(1-methyl-hexyl)-amino]-(2,4-dimethoxy-phenylamino)-methylene]-2,2-dimethyl-[1,3]dioxane-4,6-dione] |  | 97 (25) % | 350 |  |
| CCCCCC(C)N(Cc1cc2ccccc2s1)C(Nc1cc(C(C)(C)C)c(O)c(C(C)(C)C)c1)=C1C(=O)OC(C)(C)OC1=O (centres unmarked) [Example 24, 5-[[Benzo[b]thiophen-2-ylmethyl-(1-methyl-hexyl)-amino]-(3,5-di-tert-butyl-4-hydroxy-phenylamino)methylene]-2,2-dimethyl-[1,3]dioxane-4,6-dione] |  | 98 (25) % | 310 |  |
